Measured values: patent publication US20160361250A1, “ACTIVE INGREDIENTS STIMULATING TYPE 2 AND/OR TYPE 3 HUMAN BETA-DEFENSINS AND COSMETIC OR PHARMACEUTICAL COMPOSITIONS CONTAINING SUCH ACTIVE INGREDIENTS” (BASF Beauty Care Solutions France S.A.S., priority 2002, published 2016)
Values joined by “and” are separate entries in the source; they are usually repeats but may differ in a detail not shown here. Equal values may be shown once.

What was measured:
hBD3 [1] = assay: Qualitative RT-PCR of hBD3 expression, 1st step of the screening method; type: cell-based; settings: normal human keratinocytes, 16 h
Protocol: (§1) At 80% confluence, cells are contacted with the actives (1 active per well) for 16 h. An untreated control and 2 positive controls (TNFα 100 ng/mL for hBD2 and IFNγ 100 ng/mL for hBD3) are set up in parallel on the same culture plate.
(§2) After 16 h, the supernatants are collected and cells are dry frozen at −80° C. after rinsing in PBS.
(§3) Total RNA are extracted using a 96-well extraction kit on silica columns and assayed using a 96-well spectrophotometer at 260 and 280 nm. RNA are diluted to 5 ng/mL.
(§4) Qualitative one-step RT-PCR is performed on 50 ng of initial RNA in 96 wells, on actin, hBD2 and hBD3. The primers are used at a concentration of 0.5 μM and arc taken from the literature:—hBD2: sense: 5′-[…]-3′; hBD2 antisense 5′-[…]-3′ (Harder J. et al., A peptide antibiotic from human skin. Nature 1997; 387 : 861); hBD3 sense: 5′-[…]-3′; hBD3 antisense: 5′-[…]-3′; actin sense: 5′-[…]-3′; actin antisense: 5′-[…]-3′ (Harder J. et al., Isolation and characterization of human β-defensin-3, a novel human inducible peptide antibiotic. J Biol Chem 2001, 276 : 5707-5713).
(§5) Samples are placed in a thermocycler and follow a common amplification program: 50° C., 30 min; 94° C., 2 min, (94° C., 30 s; 60° C., 30 s; 68° C., 30 s), 32 cycles for the defensins and 30 cycles for actin; 72° C., 10 min; 14° C., infinite.
(§6) After amplification, the products are mixed at a rate of 3 μL of actin amplification products+6 μL of hBD2 amplification products+6 μL of hBD3 amplification products. 5 μL of a mixture of charge buffer and water (⅔) are added and the final 20 μL are deposited on 2% premoulded agarose gel. The samples migrate in 30 minutes and the bands are visualised under UV in a dark room then digitally photographed.
(§7) Photos of the gels are analysed by image processing software which quantifies the intensity of the bands. As the basal level of defensin expression (untreated control) is not detectable, the intensity ratios of the hBD2/actin and hBD3/actin bands can be compared, for example with those obtained for the positive control (treated with TNFα for hBD2 and IFNγ for hBD3) and indicate any stimulation of the expression of the β-defensin in question
(§8) Since the basal level of defensin expression is generally not detectable, stimulation of hBD2 and hBD3 is expressed as a percentage of the positive controls (TNFα for hBD2 and IFNγ for hBD3). IL8 and MIP3α levels are given as pg/mL/RNA concentration (in ng/μL).

MIP3α [2] = assay: ELISA of MIP3α secreted into the culture medium, 1st step; type: cell-based, human; settings: 100 μg/mL; keratinocyte supernatant, 16 h
Protocol: (§9) At the end of this first step, the actives having exerted an effect on β-defensin expression are selected and the supernatants corresponding to these actives are then tested using an ELISA kit in order to determine the levels of MIP3α, IL1 and IL8 secreted into the culture medium under the effect of the actives. The levels are then referred to the RNA concentration assayed in each well in order to compare results with each other.
as §8

IL8 [3] = assay: ELISA of IL8 secreted into the culture medium, 1st step; type: cell-based, human; settings: keratinocyte supernatant, 16 h
Protocol: as §9, §8

hBD2 [4] = assay: Qualitative RT-PCR of hBD2 expression, 1st step of the screening method; type: cell-based; settings: normal human keratinocytes, 16 h
Protocol: A 1% concentration of the actives is tested on normal human keratinocytes, as a monolayer, on 96-well culture plates, in a specific medium enriched with calcium and free of serum (final concentration 1.7 mM).
as §1, §2, §3, §4, §5, §6, §7, §8

IL1α = assay: ELISA of IL1α in supernatants, 2nd step; type: cell-based, human; settings: conc. 100 ng/mL; supernatant, 16 h
Protocol: (§10) The supernatants of the actives, whose capacity to induce defensins has been confirmed, are tested using an ELISA kit in order to assay MIP3α, IL8 and IL1α levels. These assays are performed on the same supernatant (200 μL) by carrying out a series dilution (by 1.5 to assay MIP3α and IL8, then by 2 to assay IL1). The levels are then referred to the RNA concentration assayed in each well in order to compare results with each other.
(§11) Quantitative RT-PCR makes it possible to obtain a basal value for the defensin expression for untreated controls. The results are therefore expressed as a percentage of the control. IL8, IL1 and MIP3 cytokine levels are given as pg/mL/RNA concentration (in ng/μL).

IL8 [5] = assay: ELISA of IL8 in supernatants, 2nd step; type: cell-based, human; settings: conc. 100 ng/mL; supernatant, 16 h
Protocol: as §10, §11

hBD3 [6] = assay: Quantitative RT-PCR of hBD3 expression, 2nd step (dose-effect); type: cell-based, human; settings: conc. 100 ng/mL; 16 h; untreated control = 100%
Protocol: (§12) The actives are then tested on 5 concentrations (from 0.001% to max viability) in quadruplicate on normal human keratinocytes as a monolayer on 96-well culture plates, in a specific medium enriched with calcium and free of serum (CaCl2 1.7 mM) (same conditions as in example 1).
as §2
(§13) Total RNA are extracted using a 96-well extraction kit on silica columns and assayed using a 96-well spectrophotometer at 260 and 280 nm. RNA are diluted to 5 ng/μL.
(§14) Quantitative RT-PCR in 96 wells on actin, hBD2 and hBD3 is initially carried out on 50 ng of RNA, using a one-step kit containing Sybrgreen, in a fluorescence thermocycler with the same primers as previously (0.5 μM). The amplification program is as follows: 50° C., 30 min; 94° C., 15 min; (94° C., 15 s; 60° C., 30 s; 72° C., 30 s)×50 cycles; 90° C., 1 min; 30° C., 1 min; 50° C. to 95° C. (10 s every ° C.); 14° C., infinite.
(§15) A study of the fusion graphs makes it possible to verify the specificity of amplified products. The fluorescence graph as a function of the number of cycles gives the C(T) value corresponding to the number of cycles needed to obtain initiation of the fluorescence signal. The more an mRNA is expressed, the lower the C(T) value. Calculation of Sgene=(½)^C(T) for each RNA takes into consideration the exponential increase in the number of copies during amplification. The Sgene hBD2/Sgene actin and Sgene hBD3/Sgene actin ratios can be compared with those of the untreated control to give the percentage stimulation produced.
as §11
(§16) In the same way as in example 2, retinoic acid and retinol were tested for their capacity to stimulate hBD2 and/or hBD3.

hBD2 [7] = assay: Quantitative RT-PCR of hBD2 expression, 2nd step (dose-effect); type: cell-based, human; settings: conc. 100 ng/mL; 16 h; untreated control = 100%
Protocol: as §12, §2, §13, §14, §15, §11, §16

MIP3α [8] = assay: ELISA of MIP3α in supernatants, 2nd step; type: cell-based, human; settings: conc. 100 ng/mL; supernatant, 16 h
Protocol: as §10, §11

In the case of `CC[C@H](C)[C@H](N)C(=O)O` (racemic) [D,L-Isoleucine], the “HBD3 expression, percentage of the positive control (IFNγ)” value (hBD3 [1]; 100 μg/mL) is reported as 0%, the MIP3α level (MIP3α [2]) is reported as 5.6 pg/mL/RNA concentration (in ng/μL) and the IL8 level (IL8 [3]; 100 μg/mL) is reported as 30.6 pg/mL/RNA concentration (in ng/μL). For the same molecule, the “HBD2 expression, percentage of the positive control (TNFα)” value (hBD2 [4]; 100 μg/mL) was 0%.

In the case of TNFα, the IL1α level (IL1α) is reported as 21.8 pg/mL/RNA concentration (in ng/μL), the “HBD3 expression, percentage of the positive control (IFNγ)” value (hBD3 [1]; 100 ng/mL (positive control)) is reported as 100% and the IL8 level (IL8 [5]) is reported as 175 pg/mL/RNA concentration (in ng/μL). For the same molecule, the “hBD3 expression, percentage of the control” value (hBD3 [6]) was 774%, the IL8 level (IL8 [3]; 100 ng/mL (positive control)) was 186 pg/mL/RNA concentration (in ng/μL) and 97 pg/mL/RNA concentration (in ng/μL) and the “hBD2 expression, percentage of the control” value (hBD2 [7]) was 1755%. The MIP3α level (MIP3α [8]) was 23.6 pg/mL/RNA concentration (in ng/μL) and the “HBD2 expression, percentage of the positive control (TNFα)” value (hBD2 [4]; 100 ng/mL (positive control)) was 100%.

B1: IFNγ: gamma interferon, positive control for hBD3 stimulation, 100 ng/mL (protein, UniProt P01579 24-161, looked up)
Interferon gamma: QDPYVKEAENLKKYFNAGHSDVADNGTLFLGILKNWKEESDRKIMQSQIVSFYFKLFKNFKDDQSIQKSVETIKEDMNVKFFNSNKKKRDDFEKLTNYSVTDLNVQRKAIHELIQVMAELSPAAKTGKRKRSQMLFRG
In the case of B1, the IL1α level (IL1α) is reported as 40.1 pg/mL/RNA concentration (in ng/μL), the IL8 level (IL8 [5]) is reported as 100.5 pg/mL/RNA concentration (in ng/μL) and the “hBD3 expression, percentage of the control” value (hBD3 [6]) is reported as 4631%. For the same molecule, the “hBD2 expression, percentage of the control” value (hBD2 [7]) was 472% and the MIP3α level (MIP3α [8]) was 11.6 pg/mL/RNA concentration (in ng/μL).
